# Values of other authors in patent US7291352B2 (HerbalScience LLC, priority 2001, dated 2007).
# Test system: gamma-aminobutyric acid (GABA) receptor uptake
# Details: in micromolar concentrations
compound,measurement,value
CN1CCC=C(C(=O)O)C1 [arecaidine],inhibition of GABA receptor uptake,inhibit
O=C(O)C1=CCCNC1 [guvacine],inhibition of GABA receptor uptake,inhibit
